Data published in patent publication US20150307938A1, “METHOD TO IDENTIFY A NOVEL CLASS OF IMMUNOLOGIC ADJUVANTS” (Lancell, L.L.C., priority 2011, published 2015).

Test system: skin
Test: Affymetrix microarray of skin, DBP-4 hr and analogs vs. untreated; gene selection by log-2 fold change, Wilcoxon, Kendall tau (Tables 8, 9)
Type: in vivo, mouse
Conditions: for Kendall: Kendall tau coefficient
[1] = DBP-4 hr vs. untreated, rank-sum p-value

## CCCCOC(=O)c1ccccc1C(=O)OCCCC [DBP, dibutylphthalate]
[1]
  Gm10229 XM_003086003_at Wilcoxon: Yes
  Gsdmc NM_031378_at Wilcoxon: Yes
  H19 NR_001592_at Wilcoxon: Yes
  Il1rl1 NM_001025602_at Wilcoxon: No
  Inpp5a NM_001127363_at Wilcoxon: No
  Inpp5d NM_001110192_at Wilcoxon: No
  Inpp5d NM_001110193_at Wilcoxon: No
  Klhdc5 NM_001081237_at Wilcoxon: No
  Krt33a NM_027983_at Wilcoxon: Yes
  Krt34 NM_027563_at Wilcoxon: Yes
  Krtap1-5 NM_027157_at Wilcoxon: Yes
  Krtap3-1 NM_023511_at Wilcoxon: Yes
  Krtap3-3 NM_025524_at Wilcoxon: Yes
  Krtap4-2 NM_026807_at Wilcoxon: Yes
  Krtap5-2 NM_027844_at Wilcoxon: Yes
  Krtap9-3 NM_029351_at Wilcoxon: Yes
  Krtap13-1 NM_183189_at Wilcoxon: Yes
  Krtap16-1 NM_130870_at Wilcoxon: Yes
  Krtap16-5 NM_130857_at Wilcoxon: Yes
  Krtap16-7 NM_028621_at Wilcoxon: Yes
  Krtap16-8 NM_130856_at Wilcoxon: Yes
  Krtap16-9 NM_130876_at Wilcoxon: Yes
  Krtap16-10 NM_183296_at Wilcoxon: Yes
  Krtap28-13 XM_896507_at Wilcoxon: Yes
  Krtap28-13 XM_919110_at Wilcoxon: Yes
  LOC100503254 XM_003085741_at Wilcoxon: Yes
  Lmod2 NM_053098_at Wilcoxon: Yes
  Lyz2 NM_017372_at Wilcoxon: Yes
  Mfhas1 NM_001081279_at Wilcoxon: No
  Mfsd4 NM_001114662_at Wilcoxon: No
  Mia1 NM_019394_at Wilcoxon: Yes
  Mrpl44 NM_001081210_at Wilcoxon: No
  Ms4a6d NM_026835_at Wilcoxon: Yes
  Mylpf NM_016754_at Wilcoxon: Yes
  Myoz2 NM_021503_at Wilcoxon: Yes
  Ncbp1 NM_001033201_at Wilcoxon: No
  Nolc1 NM_001039351_at Wilcoxon: No
  Nolc1 NM_001039352_at Wilcoxon: No
  Nolc1 NM_001039353_at Wilcoxon: No
  Nrap NM_198059_at Wilcoxon: Yes
  Nusap1 NM_133851_at Wilcoxon: Yes
  Ogfrl1 NM_001081079_at Wilcoxon: No
  Olr1 NM_138648_at Wilcoxon: Yes
  Oxr1 NM_001130163_at Wilcoxon: No
  Oxr1 NM_001130164_at Wilcoxon: No
  Oxr1 NM_001130165_at Wilcoxon: No
  Oxr1 NM_001130166_at Wilcoxon: No
  Pgam2 NM_018870_at Wilcoxon: Yes
  Pigyl NM_001082532_at Wilcoxon: No
  Pparg NM_001127330_at Wilcoxon: No
  Ppih NM_001110129_at Wilcoxon: No
  Prg4 NM_021400_at Wilcoxon: Yes
  Retnla NM_020509_at Wilcoxon: Yes
  Rffl NM_001007465_at Wilcoxon: No
  Rn18s NR_003278_at Wilcoxon: Yes
  Rpl3l NM_025425_at Wilcoxon: Yes
  Slc39a14 NM_001135151_at Wilcoxon: No
  Sln NM_025540_at Wilcoxon: Yes
  Smpx NM_025357_at Wilcoxon: Yes
  Tnfrsf9 NM_001077508_at Wilcoxon: No
  Tnfrsf9 NM_001077509_at Wilcoxon: No
  Tnni1 NM_021467_at Wilcoxon: Yes
  Trdn NM_029726_at Wilcoxon: Yes
  Trf NM_133977_at Wilcoxon: Yes
  Trp63 NM_001127259_at Wilcoxon: No
  Trp63 NM_001127260_at Wilcoxon: No
  Trp63 NM_001127262_at Wilcoxon: No
  Trp63 NM_001127264_at Wilcoxon: No
  Ttn NM_028004_at Wilcoxon: Yes
  Wbp1 NM_001083922_at Wilcoxon: No
  Wbp1 NM_001083923_at Wilcoxon: No
  Wfdc2 NM_026323_at Wilcoxon: Yes
  Zfp68 NM_001044747_at Wilcoxon: No
  Zfp187 NM_001013786_at Wilcoxon: No
  Zfp518b NM_001081144_at Wilcoxon: No
  Zfp943 NM_001025373_at Wilcoxon: No
Egr1 NM_007913_at, DBP-4 hr vs. untreated
  Wilcoxon: Yes
Egr1 NM_007913_at
  Kendall: No
Ehf NM_007914_at, DBP-4 hr vs. untreated
  Wilcoxon: Yes
Ehf NM_007914_at
  Kendall: No
Ereg NM_007950_at, DBP-4 hr vs. untreated
  Wilcoxon: Yes
Ereg NM_007950_at
  Kendall: No
Fgfbp1 NM_008009_at, DBP-4 hr vs. untreated
  Wilcoxon: No
Fgfbp1 NM_008009_at
  Kendall: No
Gch1 NM_008102_at, DBP-4 hr vs. untreated
  Wilcoxon: Yes
Gch1 NM_008102_at
  Kendall: No
Gjb2 NM_008125_at, DBP-4 hr vs. untreated
  Wilcoxon: Yes
Gjb2 NM_008125_at
  Kendall: No
Gpr65 NM_008152_at, DBP-4 hr vs. untreated
  Wilcoxon: Yes
